Measurements taken from ChEMBL document CHEMBL5360577, “Multicomponent Petasis reaction for the identification of pyrazine based multi-target directed anti-Alzheimer's agents: In-silico design, synthesis, and characterization” (Eur J Med Chem, 2023).
Activity calls are given as the source filed them. No cut-off for these calls is given here.

Key:
[1] = target: T1, Acetylcholinesterase (Homo sapiens, UniProt P22303); assay: Inhibition of human AChE using acetylthiocholine as substrate by Ellman's method
[2] = test system: SH-SY5Y; assay: Neuroprotective activity in human SH-SY5Y cell model transfected with wild-type tau assessed as cell viability at 1 to 10 uM by MTT assay; format: functional, cell-based; conditions: dose 1-10 µM
[3] = target: T2, Microtubule-associated protein tau (Homo sapiens, UniProt P10636); assay: Inhibition of cellular tau (unknown origin) aggregation at 10 uM incubated for 2 hrs by FRET assay
[4] = target: T1, Acetylcholinesterase; assay: Inhibition of human AChE using acetylthiocholine as substrate at 10 uM by Ellman's method
[5] = target: T2, Microtubule-associated protein tau; assay: Inhibition of cellular tau (unknown origin) aggregation incubated for 2 hrs by FRET assay
[6] = target: T1, Acetylcholinesterase; assay: Inhibition of human AChE using acetylthiocholine as substrate at 10 uM by Ellman's method relative to control
[7] = target: Amyloid-beta precursor protein (Homo sapiens) (UniProt P05067); assay: Inhibition of amyloid beta (unknown origin) aggregation at 10 uM relative to control
[8] = target: T2, Microtubule-associated protein tau; assay: Inhibition of tau (unknown origin) aggregation at 10 uM relative to control
[9] = target: T3, Amine oxidase [flavin-containing] B (Homo sapiens, UniProt P27338); assay: Inhibition of human MAO-B by fluorometric assay
T3 sequence (P27338 whole entry): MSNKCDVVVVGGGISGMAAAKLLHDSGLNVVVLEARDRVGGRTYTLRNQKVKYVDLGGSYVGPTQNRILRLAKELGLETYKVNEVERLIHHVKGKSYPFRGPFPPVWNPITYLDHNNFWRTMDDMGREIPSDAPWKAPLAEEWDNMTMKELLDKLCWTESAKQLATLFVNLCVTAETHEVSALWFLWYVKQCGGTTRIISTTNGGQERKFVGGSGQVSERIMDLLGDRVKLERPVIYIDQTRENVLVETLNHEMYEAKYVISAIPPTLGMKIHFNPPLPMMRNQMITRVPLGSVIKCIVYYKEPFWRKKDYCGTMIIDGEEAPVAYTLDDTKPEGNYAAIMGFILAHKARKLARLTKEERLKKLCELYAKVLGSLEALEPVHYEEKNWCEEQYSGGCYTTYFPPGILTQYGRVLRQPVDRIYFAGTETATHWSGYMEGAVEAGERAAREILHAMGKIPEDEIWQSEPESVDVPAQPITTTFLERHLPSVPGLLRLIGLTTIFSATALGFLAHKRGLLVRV

[10] = target: Cholinesterase (Homo sapiens, UniProt P06276); assay: Inhibition of human BuChE by Ellman's method
[11] = target: T1, Acetylcholinesterase; assay: Inhibition of human AChE by Ellman's method

T1 sequence (P22303 whole entry): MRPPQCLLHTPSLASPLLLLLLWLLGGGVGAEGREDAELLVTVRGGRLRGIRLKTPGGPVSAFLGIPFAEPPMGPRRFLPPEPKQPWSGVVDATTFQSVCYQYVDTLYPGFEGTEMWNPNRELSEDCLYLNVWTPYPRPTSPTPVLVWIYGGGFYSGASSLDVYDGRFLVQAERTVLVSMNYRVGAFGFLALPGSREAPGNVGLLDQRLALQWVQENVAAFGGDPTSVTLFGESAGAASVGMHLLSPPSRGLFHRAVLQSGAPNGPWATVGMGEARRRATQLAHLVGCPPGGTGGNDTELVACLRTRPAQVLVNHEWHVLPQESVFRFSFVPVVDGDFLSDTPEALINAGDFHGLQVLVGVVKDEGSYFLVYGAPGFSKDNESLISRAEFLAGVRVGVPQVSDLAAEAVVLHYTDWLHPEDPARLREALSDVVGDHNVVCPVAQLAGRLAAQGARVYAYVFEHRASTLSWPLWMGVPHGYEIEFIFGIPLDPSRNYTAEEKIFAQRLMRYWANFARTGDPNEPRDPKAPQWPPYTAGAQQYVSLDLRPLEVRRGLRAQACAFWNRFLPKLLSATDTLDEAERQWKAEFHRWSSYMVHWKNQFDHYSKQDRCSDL
T2 sequence (P10636 whole entry): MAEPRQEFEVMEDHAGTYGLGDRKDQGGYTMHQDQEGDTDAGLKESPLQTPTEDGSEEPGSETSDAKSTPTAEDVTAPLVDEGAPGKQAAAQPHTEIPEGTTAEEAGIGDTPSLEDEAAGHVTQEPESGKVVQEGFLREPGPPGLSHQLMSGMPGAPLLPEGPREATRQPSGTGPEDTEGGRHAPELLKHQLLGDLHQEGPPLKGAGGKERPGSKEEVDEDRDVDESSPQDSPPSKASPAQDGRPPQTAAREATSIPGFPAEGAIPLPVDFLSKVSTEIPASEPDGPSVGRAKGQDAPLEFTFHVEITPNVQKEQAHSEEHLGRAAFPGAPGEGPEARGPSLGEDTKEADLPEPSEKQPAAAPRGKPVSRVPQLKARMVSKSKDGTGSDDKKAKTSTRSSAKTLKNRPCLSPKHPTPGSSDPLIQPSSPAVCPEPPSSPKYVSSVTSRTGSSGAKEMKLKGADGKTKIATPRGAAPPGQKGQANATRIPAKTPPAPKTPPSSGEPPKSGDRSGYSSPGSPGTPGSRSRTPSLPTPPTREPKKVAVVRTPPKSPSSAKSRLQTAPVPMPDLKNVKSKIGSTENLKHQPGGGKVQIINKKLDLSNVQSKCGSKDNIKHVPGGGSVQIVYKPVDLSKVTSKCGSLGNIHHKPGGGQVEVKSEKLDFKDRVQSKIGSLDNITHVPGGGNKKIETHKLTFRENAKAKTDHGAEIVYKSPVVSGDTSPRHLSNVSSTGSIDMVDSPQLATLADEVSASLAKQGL
Chain of Cholinesterase (P06276 whole entry): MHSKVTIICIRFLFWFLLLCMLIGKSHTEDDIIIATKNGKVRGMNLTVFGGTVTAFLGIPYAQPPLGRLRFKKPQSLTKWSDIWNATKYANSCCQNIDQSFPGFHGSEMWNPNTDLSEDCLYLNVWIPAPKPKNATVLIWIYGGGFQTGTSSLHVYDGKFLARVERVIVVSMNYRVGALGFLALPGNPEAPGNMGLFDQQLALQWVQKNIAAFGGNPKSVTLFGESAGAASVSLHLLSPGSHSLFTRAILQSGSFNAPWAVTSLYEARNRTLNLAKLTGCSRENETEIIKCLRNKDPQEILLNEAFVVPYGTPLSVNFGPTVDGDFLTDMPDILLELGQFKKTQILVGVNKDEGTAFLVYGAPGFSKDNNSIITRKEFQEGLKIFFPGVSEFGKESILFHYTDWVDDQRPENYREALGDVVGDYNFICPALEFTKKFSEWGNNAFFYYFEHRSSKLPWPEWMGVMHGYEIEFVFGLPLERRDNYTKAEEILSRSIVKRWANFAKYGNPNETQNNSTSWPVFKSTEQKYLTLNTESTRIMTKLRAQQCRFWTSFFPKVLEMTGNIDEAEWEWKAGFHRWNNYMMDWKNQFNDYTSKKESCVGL
Chain of Amyloid-beta precursor protein (Homo sapiens) (P05067 whole entry): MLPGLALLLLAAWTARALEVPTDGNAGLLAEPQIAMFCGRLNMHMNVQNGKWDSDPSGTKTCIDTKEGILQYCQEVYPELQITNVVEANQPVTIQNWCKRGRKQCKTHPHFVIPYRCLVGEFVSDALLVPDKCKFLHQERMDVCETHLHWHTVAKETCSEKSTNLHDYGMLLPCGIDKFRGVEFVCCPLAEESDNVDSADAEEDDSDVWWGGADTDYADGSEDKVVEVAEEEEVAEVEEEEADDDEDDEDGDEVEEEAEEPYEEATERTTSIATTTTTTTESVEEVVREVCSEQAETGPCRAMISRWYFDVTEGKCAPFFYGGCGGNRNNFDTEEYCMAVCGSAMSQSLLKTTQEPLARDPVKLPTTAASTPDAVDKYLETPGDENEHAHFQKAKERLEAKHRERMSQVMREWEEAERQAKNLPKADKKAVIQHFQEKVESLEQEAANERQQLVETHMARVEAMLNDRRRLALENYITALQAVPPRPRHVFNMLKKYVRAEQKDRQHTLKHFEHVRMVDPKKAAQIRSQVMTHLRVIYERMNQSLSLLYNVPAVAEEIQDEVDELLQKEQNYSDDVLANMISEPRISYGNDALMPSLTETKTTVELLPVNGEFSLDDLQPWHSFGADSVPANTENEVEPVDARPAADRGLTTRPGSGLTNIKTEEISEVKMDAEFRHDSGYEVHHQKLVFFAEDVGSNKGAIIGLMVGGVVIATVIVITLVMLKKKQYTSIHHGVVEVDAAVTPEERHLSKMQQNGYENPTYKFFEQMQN

SMILES	IC50 [1]	Activity [2]	inhibition [3]	inhibition [4]	EC50 [5]	further results
COc1cccc(C(c2ccc(F)cc2)N2CCN(c3cnccn3)CC2)c1O (configuration not stated)	0.71 µM	Active	Active	Active	2.21 µM	
Oc1ccccc1C(c1ccc(C(F)(F)F)cc1)N1CCN(c2cnccn2)CC1 (configuration not stated)				Active		inhibition [6]: < 40%
OC(CNCCC(c1ccccc1)c1ccccc1)CNCc1ccccc1 (configuration not stated)						inhibition [7]: 80%; inhibition [8]: 68%
Cc1cc(C)c(C(=O)/C=C/c2nc(C)c(C)nc2C)cc1C						IC50 [9]: 11.2 µM; IC50 [10]: 37.6 µM; IC50 [11]: 2.4 µM
Cc1ccc(C(c2ccccc2O)N2CCN(c3cnccn3)CC2)cc1 (configuration not stated)	1.09 µM	Active	Active	Active	2.71 µM	
